{"source": "patent US7229979B2", "about": "“Hypoestoxides, derivatives and agonists thereof for use as stent-coating agents” (Immune Modulation, Inc., priority 2003, dated 2007)", "tested_on": "platelets (arachidonic acid-induced platelet aggregation)", "test": "Arachidonic acid-induced platelet aggregation in platelet-rich plasma", "format": "cell-based, New Zealand rabbit", "conditions": "30 μM; arachidonic acid 100 μM; rabbit platelet-rich plasma", "experimental": "The inhibitory effect of hypoestoxides according to the present invention on platelet aggregation was studied. Platelet-rich plasma from a New Zealand rabbit was used as the source of platelets. Arachidonic acid (100 μM) was used to induce maximal platelet aggregation in vitro. Optical density of aggregation was measured by densitometry.", "data": [{"smiles": "C=C1C(=O)C[C@H]2C[C@@H]3O[C@@]3(C)CC[C@@H]3O[C@@]3(C)C[C@@H](OC(C)=O)[C@H]1C2(C)C", "note": "[Hypoestoxide, hypoestoxide]", "values": [{"measurement": "% Inhibition of arachidonic acid-induced platelet aggregation", "result": 100, "unit": "%"}]}]}
